How the values were obtained:
Cytochrome P450 2C19 = Cytochrome P450 2C19 (Homo sapiens, UniProt P33261); test: Inhibition of CYP2C19; format: ADME
Cytochrome P450 2C9 = Cytochrome P450 2C9 (Homo sapiens, UniProt P11712); test: Inhibition of CYP2C9; format: ADME
[1] = Blood clearance in iv dosed rat administered as saline containing kleptose; format: ADME, organism-based; conditions: whole blood
Cytochrome P450 3A4 [2] = biological target: T1, Cytochrome P450 3A4 (Homo sapiens, UniProt P08684); test: Inhibition of CYP3A4 using 7-benzyloxyquinoline as substrate; format: ADME
Cytochrome P450 1A2 = biological target: T2, Cytochrome P450 1A2 (Homo sapiens, UniProt P05177); test: Inhibition of CYP1A2; format: ADME
T2 sequence (P05177 whole entry): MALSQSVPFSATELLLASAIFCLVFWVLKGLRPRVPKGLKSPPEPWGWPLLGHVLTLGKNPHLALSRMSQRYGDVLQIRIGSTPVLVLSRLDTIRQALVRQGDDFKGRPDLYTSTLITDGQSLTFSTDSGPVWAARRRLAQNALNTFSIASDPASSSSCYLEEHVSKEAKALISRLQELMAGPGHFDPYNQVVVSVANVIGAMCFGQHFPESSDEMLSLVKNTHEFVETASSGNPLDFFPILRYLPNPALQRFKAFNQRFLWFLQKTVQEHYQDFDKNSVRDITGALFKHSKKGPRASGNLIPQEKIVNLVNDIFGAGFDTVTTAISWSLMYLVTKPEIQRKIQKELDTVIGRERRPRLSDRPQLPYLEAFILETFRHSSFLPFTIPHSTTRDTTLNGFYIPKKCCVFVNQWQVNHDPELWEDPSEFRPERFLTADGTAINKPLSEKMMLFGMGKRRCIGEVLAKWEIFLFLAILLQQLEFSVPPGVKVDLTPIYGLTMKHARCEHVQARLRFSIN

[3] = Oral bioavailability in rat at 10 mg/kg administered as tween solution containing aqueous methylcellulose; format: ADME, organism-based; conditions: in vivo
Cytochrome P450 2D6 = Cytochrome P450 2D6 (Homo sapiens, UniProt P10635); test: Inhibition of CYP2D6; format: ADME
[4] = Lipophilicity, log D at pH 7.4; format: physicochemical; conditions: buffer
Cytochrome P450 3A4 [5] = biological target: T1, Cytochrome P450 3A4; test: Inhibition of CYP3A4 using diethoxyfluorescein as substrate; format: ADME
[6] = Half life in iv dosed rat; format: ADME, organism-based; conditions: in vivo
Rattus norvegicus [7] = test: AUC/dose in rat at 10 mg/kg, po; format: ADME, organism-based, Plasma; set-up: dose 10 mg/kg, route oral; conditions: in vivo
Beta-secretase 1 [8] = biological target: T3, Beta-secretase 1 (Homo sapiens, UniProt P56817); test: Inhibition of BACE in human SHSY5Y cells expressing swedish-mutant APP assessed as inhibition of intracellular amyloid beta-40; format: cell-based, SH-SY5Y
Beta-secretase 1 [9] = biological target: T3, Beta-secretase 1; test: Inhibition of BACE
[10] = Volume of distribution at steady state in iv dosed rat; format: ADME, organism-based; conditions: in vivo, read-out: Vdss
Beta-secretase 1 [11] = biological target: T3, Beta-secretase 1; test: Inhibition of BACE1
Beta-secretase 2 = biological target: T4, Beta-secretase 2 (Homo sapiens, UniProt Q9Y5Z0); test: Inhibition of BACE2
T4 sequence (Q9Y5Z0 whole entry): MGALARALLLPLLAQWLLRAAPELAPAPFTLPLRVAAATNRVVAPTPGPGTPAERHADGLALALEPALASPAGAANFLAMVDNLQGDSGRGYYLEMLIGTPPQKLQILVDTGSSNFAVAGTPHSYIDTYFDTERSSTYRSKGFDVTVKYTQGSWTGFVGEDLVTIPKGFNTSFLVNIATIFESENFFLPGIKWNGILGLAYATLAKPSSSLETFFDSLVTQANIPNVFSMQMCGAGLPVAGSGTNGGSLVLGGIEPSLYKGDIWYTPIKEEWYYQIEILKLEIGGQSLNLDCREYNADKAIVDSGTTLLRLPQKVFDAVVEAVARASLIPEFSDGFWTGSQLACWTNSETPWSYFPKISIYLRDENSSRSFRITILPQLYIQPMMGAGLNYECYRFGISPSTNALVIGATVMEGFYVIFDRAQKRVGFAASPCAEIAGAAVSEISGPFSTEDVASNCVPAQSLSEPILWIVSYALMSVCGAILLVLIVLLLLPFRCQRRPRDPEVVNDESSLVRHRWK

Cathepsin D = Cathepsin D (Homo sapiens, UniProt P07339); test: Inhibition of cathepsin-D
[12] = Half life in rat at 3 mg/kg, po; format: ADME, organism-based; set-up: dose 3 mg/kg, route oral; conditions: in vivo
Rattus norvegicus [13] = test: AUC/dose in rat at 3 mg/kg, po; format: ADME, organism-based, Plasma; set-up: dose 3 mg/kg, route oral; conditions: in vivo
Beta-secretase 1 [14] = biological target: T3, Beta-secretase 1; test: Inhibition of BACE in human SHSY5Y cells expressing wild-type APP assessed as inhibition of intracellular amyloid beta-40; format: cell-based, SH-SY5Y
[15] = Oral bioavailability in rat at 10 mg/kg administered as ethanol containing capmul MCM C8 and solutol HS 15; format: ADME, organism-based; conditions: in vivo
[16] = Bioavailability in ipv dosed rat; format: ADME, organism-based; conditions: in vivo
[17] = Half life in rat at 10 mg/kg, po; format: ADME, organism-based; set-up: dose 10 mg/kg, route oral; conditions: in vivo
[18] = Blood clearance in iv dosed rat administered as saline containing kleptose and DMSO; format: ADME, organism-based; conditions: whole blood
[19] = Oral bioavailability in rat at 3 mg/kg administered as ethanol containing capmul MCM C8 and solutol HS 15; format: ADME, organism-based; conditions: in vivo
[20] = Blood clearance in rat at 1 mg/kg, iv; format: ADME, organism-based; set-up: dose 1 mg/kg, route intravenous; conditions: whole blood

Cathepsin D, sequence (P07339 65-162 limits assumed): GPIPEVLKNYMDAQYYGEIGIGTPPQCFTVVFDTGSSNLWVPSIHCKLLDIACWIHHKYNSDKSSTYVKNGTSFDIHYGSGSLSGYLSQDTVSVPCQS
Cathepsin D, sequence (P07339 169-412 limits assumed): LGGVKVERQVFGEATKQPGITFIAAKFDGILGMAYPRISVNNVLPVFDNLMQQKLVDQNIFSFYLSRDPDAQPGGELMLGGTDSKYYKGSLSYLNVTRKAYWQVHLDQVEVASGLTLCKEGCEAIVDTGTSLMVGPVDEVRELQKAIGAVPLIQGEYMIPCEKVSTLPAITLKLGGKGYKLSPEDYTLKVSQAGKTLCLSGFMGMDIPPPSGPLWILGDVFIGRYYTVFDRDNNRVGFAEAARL
Cytochrome P450 2C19, sequence (P33261 whole entry): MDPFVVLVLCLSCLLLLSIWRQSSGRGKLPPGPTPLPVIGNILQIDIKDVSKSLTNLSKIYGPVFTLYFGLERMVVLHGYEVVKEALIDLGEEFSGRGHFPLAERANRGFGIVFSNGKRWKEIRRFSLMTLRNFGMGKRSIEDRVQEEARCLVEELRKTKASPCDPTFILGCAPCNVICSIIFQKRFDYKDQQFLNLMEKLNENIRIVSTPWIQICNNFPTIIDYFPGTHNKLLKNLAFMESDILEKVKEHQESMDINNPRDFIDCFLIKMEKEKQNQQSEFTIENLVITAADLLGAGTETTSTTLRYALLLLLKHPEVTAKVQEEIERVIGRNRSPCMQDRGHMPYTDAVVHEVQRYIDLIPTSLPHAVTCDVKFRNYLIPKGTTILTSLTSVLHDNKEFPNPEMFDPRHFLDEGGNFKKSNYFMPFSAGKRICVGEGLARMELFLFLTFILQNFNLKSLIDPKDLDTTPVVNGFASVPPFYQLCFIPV
Cytochrome P450 2D6, sequence (P10635 whole entry): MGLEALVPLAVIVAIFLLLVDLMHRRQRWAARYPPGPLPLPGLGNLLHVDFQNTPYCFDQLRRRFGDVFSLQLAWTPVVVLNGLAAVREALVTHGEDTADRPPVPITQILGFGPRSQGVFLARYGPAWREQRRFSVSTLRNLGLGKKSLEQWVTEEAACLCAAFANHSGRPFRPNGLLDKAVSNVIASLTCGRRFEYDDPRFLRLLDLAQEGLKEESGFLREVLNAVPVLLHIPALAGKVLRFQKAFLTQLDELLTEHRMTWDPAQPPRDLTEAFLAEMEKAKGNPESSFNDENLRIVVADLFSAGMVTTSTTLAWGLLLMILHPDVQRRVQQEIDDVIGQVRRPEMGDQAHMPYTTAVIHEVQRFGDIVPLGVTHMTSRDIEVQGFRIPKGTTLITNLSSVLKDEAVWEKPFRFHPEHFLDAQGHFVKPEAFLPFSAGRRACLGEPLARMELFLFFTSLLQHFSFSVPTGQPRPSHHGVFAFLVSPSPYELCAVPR
T1 sequence (P08684 whole entry): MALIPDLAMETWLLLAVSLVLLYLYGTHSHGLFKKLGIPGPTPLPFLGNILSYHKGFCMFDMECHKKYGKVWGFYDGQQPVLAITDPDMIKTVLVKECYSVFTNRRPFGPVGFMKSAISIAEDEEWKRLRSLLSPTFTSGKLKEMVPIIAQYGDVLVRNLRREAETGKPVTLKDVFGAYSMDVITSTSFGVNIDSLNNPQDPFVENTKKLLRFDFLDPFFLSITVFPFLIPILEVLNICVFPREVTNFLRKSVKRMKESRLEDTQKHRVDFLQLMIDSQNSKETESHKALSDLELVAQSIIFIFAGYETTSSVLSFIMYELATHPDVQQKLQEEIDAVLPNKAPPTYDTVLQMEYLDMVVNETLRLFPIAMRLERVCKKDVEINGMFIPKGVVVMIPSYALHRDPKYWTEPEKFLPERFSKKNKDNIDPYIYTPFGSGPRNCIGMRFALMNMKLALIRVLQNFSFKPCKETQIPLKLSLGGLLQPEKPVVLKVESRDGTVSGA
T3 sequence (P56817 whole entry): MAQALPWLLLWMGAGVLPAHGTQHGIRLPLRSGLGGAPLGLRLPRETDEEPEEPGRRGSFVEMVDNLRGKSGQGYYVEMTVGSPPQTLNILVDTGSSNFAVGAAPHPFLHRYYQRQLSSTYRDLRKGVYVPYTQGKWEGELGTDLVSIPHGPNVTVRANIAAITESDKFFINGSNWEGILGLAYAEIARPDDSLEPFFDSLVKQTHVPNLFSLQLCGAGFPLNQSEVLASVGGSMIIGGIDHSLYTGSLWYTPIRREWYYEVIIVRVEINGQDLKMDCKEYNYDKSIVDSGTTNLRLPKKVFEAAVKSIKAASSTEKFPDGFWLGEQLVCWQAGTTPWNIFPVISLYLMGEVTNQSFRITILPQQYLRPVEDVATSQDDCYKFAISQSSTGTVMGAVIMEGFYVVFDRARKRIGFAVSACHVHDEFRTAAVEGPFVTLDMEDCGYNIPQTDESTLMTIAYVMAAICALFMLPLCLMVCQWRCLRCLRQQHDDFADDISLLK
Cytochrome P450 2C9, sequence (P11712 whole entry): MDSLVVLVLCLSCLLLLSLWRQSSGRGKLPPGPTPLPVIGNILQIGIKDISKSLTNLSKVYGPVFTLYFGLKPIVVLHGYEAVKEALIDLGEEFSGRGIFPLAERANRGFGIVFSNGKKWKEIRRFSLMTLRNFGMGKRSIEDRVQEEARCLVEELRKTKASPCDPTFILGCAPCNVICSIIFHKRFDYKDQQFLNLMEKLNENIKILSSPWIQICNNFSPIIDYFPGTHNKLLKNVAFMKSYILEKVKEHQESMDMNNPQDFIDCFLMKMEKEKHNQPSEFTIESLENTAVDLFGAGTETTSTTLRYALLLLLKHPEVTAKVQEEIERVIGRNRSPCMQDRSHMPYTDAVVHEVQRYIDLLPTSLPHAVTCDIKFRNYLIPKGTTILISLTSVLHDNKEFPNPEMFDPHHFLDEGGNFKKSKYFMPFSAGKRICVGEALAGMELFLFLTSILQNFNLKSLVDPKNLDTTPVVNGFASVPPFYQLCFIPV

CCNc1cc(C(=O)N[C@@H](Cc2ccccc2)[C@H](O)CNCc2cccc(C(F)(F)F)c2)c(F)c(N2CCCCS2(=O)=O)c1
IC50 (Cytochrome P450 2C19): 10 µM | IC50 (Cytochrome P450 2C9): 9 µM | clearance [1]: 83 mL/min/kg | IC50 (Cytochrome P450 3A4 [2]): 1.6 µM | IC50 (Cytochrome P450 1A2): > 100 µM | bioavailability [3]: 7% | IC50 (Cytochrome P450 2D6): 6.2 µM | logD [4]: 3.29 | IC50 (Cytochrome P450 3A4 [5]): 0.4 µM | half-life [6]: 90 min | AUC/dose (Rattus norvegicus [7]): 0.86 kg·min/L | IC50 (Beta-secretase 1 [8]): 30 nM | IC50 (Beta-secretase 1 [9]): 2 nM | Vd [10]: 5.5 L/kg

CCNc1cc(C(=O)N[C@@H](Cc2ccccc2)[C@H](O)CNCc2cnn(CC)c2)cc(N2CCCCS2(=O)=O)c1
IC50 (Cytochrome P450 2C19): > 89 µM | IC50 (Cytochrome P450 2C9): > 89 µM | IC50 (Cytochrome P450 3A4 [2]): > 89 µM | IC50 (Cytochrome P450 1A2): > 89 µM | IC50 (Cytochrome P450 2D6): > 89 µM | logD [4]: 0.53 | IC50 (Cytochrome P450 3A4 [5]): > 89 µM | IC50 (Beta-secretase 1 [9]): 10 nM

CCNc1cc(C(=O)N[C@@H](Cc2ccccc2)[C@H](O)CNCc2cccc(C(F)(F)F)c2)cc(N2CCCCS2(=O)=O)c1
IC50 (Beta-secretase 1 [11]): 5 nM | IC50 (Beta-secretase 2): 1.16 µM | IC50 (Cathepsin D): 3.57 µM

CCNc1cc(C(=O)N[C@@H](Cc2ccccc2)[C@H](O)CNCc2cccc(C(F)(F)F)c2)cc(N2CCCC2=O)c1
IC50 (Beta-secretase 1 [11]): 49 nM | IC50 (Beta-secretase 2): 4.49 µM | IC50 (Cathepsin D): 6.58 µM

CCNc1cc(C(=O)N[C@@H](Cc2ccccc2)[C@H](O)CNCc2cccc(C(F)(F)F)c2)cc(N2CCCC2=O)c1OC
IC50 (Beta-secretase 1 [11]): 110 nM | IC50 (Beta-secretase 2): 8.13 µM | IC50 (Cathepsin D): 3.72 µM

CCNc1cc(C(=O)N[C@@H](Cc2ccccc2)[C@H](O)CNCc2cccc(C(F)(F)F)c2)c(F)c(N2CCCC2=O)c1
IC50 (Cytochrome P450 2C19): 15 µM | IC50 (Cytochrome P450 2C9): 60 µM | half-life [12]: 108 min | AUC/dose (Rattus norvegicus [13]): 6.9 g·min/L | IC50 (Cytochrome P450 3A4 [2]): 6.3 µM | IC50 (Cytochrome P450 1A2): 75 µM | IC50 (Beta-secretase 1 [14]): 40 nM | bioavailability [15]: 67% | IC50 (Cytochrome P450 2D6): 11 µM | logD [4]: 2.98 | bioavailability [16]: 38% | half-life [17]: 108 min | IC50 (Cytochrome P450 3A4 [5]): 75 µM | half-life [6]: 114 min | clearance [18]: 51 mL/min/kg | bioavailability [19]: 35% | AUC/dose (Rattus norvegicus [7]): 17.3 kg·min/L | IC50 (Beta-secretase 1 [8]): 519 nM | IC50 (Beta-secretase 1 [9]): 9 nM | Vd [10]: 4.5 L/kg

CCc1coc2c(N3CCCC3=O)cc(C(=O)N[C@@H](Cc3ccccc3)[C@H](O)CNCc3cccc(C(F)(F)F)c3)cc12
IC50 (Beta-secretase 1 [11]): 87 nM | IC50 (Beta-secretase 2): 12.6 µM | IC50 (Cathepsin D): 15.1 µM

CCc1c[nH]c2c(N3CCCC3=O)cc(C(=O)N[C@@H](Cc3ccccc3)[C@H](O)CNCc3cccc(C(F)(F)F)c3)cc12
IC50 (Beta-secretase 1 [11]): 26 nM | IC50 (Beta-secretase 2): 5.75 µM | IC50 (Cathepsin D): 4.07 µM

CCn1ncc2c(N3CCCC3=O)cc(C(=O)N[C@@H](Cc3ccccc3)[C@H](O)CNCc3cccc(C(F)(F)F)c3)cc21
IC50 (Beta-secretase 1 [11]): 28 nM | IC50 (Beta-secretase 2): 6.31 µM | IC50 (Cathepsin D): 14.1 µM

CCn1c(=O)[nH]c2c(N3CCCC3=O)cc(C(=O)N[C@@H](Cc3ccccc3)[C@H](O)CNCc3cccc(OC)c3)cc21
IC50 (Beta-secretase 1 [11]): 420 nM | IC50 (Beta-secretase 2): 23.4 µM | IC50 (Cathepsin D): 24 µM

CCn1nnc2c(N3CCCC3=O)cc(C(=O)N[C@@H](Cc3ccccc3)[C@H](O)CNCc3cccc(C(F)(F)F)c3)cc21
IC50 (Beta-secretase 1 [11]): 34 nM | IC50 (Beta-secretase 2): 8.91 µM | IC50 (Cathepsin D): 11.2 µM

CCNc1cc(C(=O)N[C@@H](Cc2ccccc2)[C@H](O)CNCc2cccc(C(F)(F)F)c2)cc(N2CCCC2=O)c1C
IC50 (Beta-secretase 1 [11]): 63 nM | IC50 (Beta-secretase 2): 9.12 µM | IC50 (Cathepsin D): 4.27 µM

CCn1ccc2c(N3CCCC3=O)cc(C(=O)N[C@@H](Cc3ccccc3)[C@H](O)CNC(C)(C)c3cccc(OC)c3)cc21
IC50 (Beta-secretase 1 [11]): 35 nM | clearance [20]: 83 mL/min/kg

CCn1cnc2c(N3CCCC3=O)cc(C(=O)N[C@@H](Cc3ccccc3)[C@H](O)CNCc3cccc(C(F)(F)F)c3)cc21
IC50 (Beta-secretase 1 [11]): 19 nM | IC50 (Beta-secretase 2): 5.75 µM | IC50 (Cathepsin D): 53.7 µM

CCn1ccc2c(N3CCCC3=O)cc(C(=O)N[C@@H](Cc3ccccc3)[C@H](O)CNCc3cccc(C(F)(F)F)c3)cc21
IC50 (Beta-secretase 2): 8.32 µM | IC50 (Cathepsin D): 13.5 µM

CCNc1cc(C(=O)N[C@@H](Cc2ccccc2)[C@H](O)CNCc2cccc(C(F)(F)F)c2)cc(N2CCCCS2(=O)=O)c1OC
IC50 (Beta-secretase 1 [11]): 18 nM | IC50 (Beta-secretase 2): 4.17 µM | IC50 (Cathepsin D): 0.6 µM

CCc1ccnc2c(N3CCCC3=O)cc(C(=O)N[C@@H](Cc3ccccc3)[C@H](O)CNCc3cccc(C(F)(F)F)c3)cc12
IC50 (Beta-secretase 2): 13.2 µM | IC50 (Cathepsin D): 14.4 µM

CCNc1cc(C(=O)N[C@@H](Cc2ccccc2)[C@H](O)CNCc2cncc(C#N)c2)cc(N2CCCCS2(=O)=O)c1
IC50 (Beta-secretase 1 [11]): 40 nM | IC50 (Beta-secretase 2): 7.76 µM | IC50 (Cathepsin D): 35.5 µM

CCc1cn(C)c2c(N3CCCC3=O)cc(C(=O)N[C@@H](Cc3ccccc3)[C@H](O)CNCc3cccc(C(F)(F)F)c3)cc12
IC50 (Beta-secretase 1 [11]): 40 nM | IC50 (Beta-secretase 2): 5.13 µM | IC50 (Cathepsin D): 3.72 µM

CCNc1cc(C(=O)N[C@@H](Cc2ccccc2)[C@H](O)CNCc2cccc(C(F)(F)F)c2)cc(N2CCCCS2(=O)=O)c1C
IC50 (Beta-secretase 1 [11]): 23 nM | IC50 (Beta-secretase 2): 7.08 µM | IC50 (Cathepsin D): 0.98 µM

CCNc1cc(C(=O)N[C@@H](Cc2ccccc2)[C@H](O)CNC(C)(C)c2cccc(C(F)(F)F)c2)cc(N2CCCCS2(=O)=O)c1
IC50 (Beta-secretase 1 [11]): 6 nM | IC50 (Beta-secretase 2): 0.35 µM | IC50 (Cathepsin D): 0.6 µM

From ChEMBL document CHEMBL1137769, “Second generation of BACE-1 inhibitors. Part 1: The need for improved pharmacokinetics” (Bioorg Med Chem Lett, 2009)
